# Results reported in PubChem BioAssay AID1745844 (Carcinogenic Potency Database (CPDB), 2022).
# Where “and” joins values, the source holds several entries; their conditions need not be identical. Identical values can stand only once. Calls of active or inactive are those of the source. No rule for the calls is given here.
# System: rodent lifetime carcinogenesis bioassay, tumor incidence TD50
# Test: chronic cancer bioassays in animals – CPDB, compiled studies (AID 1745844)
smiles,measurement,setting,value
O=c1ccc2ccccc2o1,TD50,"hamster, strain Syrian Golden, females, in feed, site: any site (literature study), lesion: several types, types named in the paper, dosed 95 weeks, study length 104 weeks",5520 mg/kg/day (inactive)
same,carcinogen call,"hamster, strain Syrian Golden, females, in feed, site: liver, lesion: one or several types, types not named, dosed 95 weeks, study length 104 weeks",negative (inactive)
same,TD50,"hamster, strain Syrian Golden, males, in feed, site: any site (literature study), lesion: several types, types named in the paper, dosed 104 weeks, study length 104 weeks",603 mg/kg/day (inactive)
same,carcinogen call,"hamster, strain Syrian Golden, males, in feed, site: liver, lesion: one or several types, types not named, dosed 104 weeks, study length 104 weeks",negative (inactive)
same,TD50,"mouse, strain B6C3F1, females, by gavage, site: any site (literature study), lesion: several types, types named in the paper, dosed 103 weeks, study length 104 weeks",198 mg/kg/day
same,TD50,"mouse, strain B6C3F1, females, by gavage, site: forestomach, lesion: squamous-cell carcinoma + squamous-cell papilloma, dosed 103 weeks, study length 104 weeks",42000 mg/kg/day
same,TD50,"mouse, strain B6C3F1, females, by gavage, site: forestomach, lesion: squamous-cell papilloma, dosed 103 weeks, study length 104 weeks",12200 mg/kg/day
same,TD50,"mouse, strain B6C3F1, females, by gavage, site: liver + lung, lesion: hepatocellular adenoma + hepatocellular carcinoma + alveolar/bronchiolar adenoma + alveolar/bronchiolar carcinoma, dosed 103 weeks, study length 104 weeks",85.5 mg/kg/day
same,TD50,"mouse, strain B6C3F1, females, by gavage, site: liver, lesion: hepatocellular adenoma + hepatoblastoma + hepatocellular carcinoma, dosed 103 weeks, study length 104 weeks",65.7 mg/kg/day
same,TD50,"mouse, strain B6C3F1, females, by gavage, site: liver, lesion: hepatocellular adenoma + hepatocellular carcinoma, dosed 103 weeks, study length 104 weeks",65.7 mg/kg/day
same,TD50,"mouse, strain B6C3F1, females, by gavage, site: liver, lesion: hepatocellular adenoma, dosed 103 weeks, study length 104 weeks",72.8 mg/kg/day
same,TD50,"mouse, strain B6C3F1, females, by gavage, site: lung, lesion: alveolar/bronchiolar adenoma + alveolar/bronchiolar carcinoma, dosed 103 weeks, study length 104 weeks",135 mg/kg/day
same,TD50,"mouse, strain B6C3F1, females, by gavage, site: lung, lesion: alveolar/bronchiolar adenoma, dosed 103 weeks, study length 104 weeks",179 mg/kg/day
same,TD50,"mouse, strain B6C3F1, females, by gavage, site: lung, lesion: alveolar/bronchiolar carcinoma, dosed 103 weeks, study length 104 weeks",825 mg/kg/day
same,TD50,"mouse, strain B6C3F1, males, by gavage, site: all sites, lesion: histiocytic sarcoma + malignant lymphoma, histiocytic type + malignant lymphoma, mixed type + malignant lymphoma, lymphocytic, dosed 103 weeks, study length 104 weeks",600 mg/kg/day
same,TD50,"mouse, strain B6C3F1, males, by gavage, site: any site (literature study), lesion: several types, types named in the paper, dosed 103 weeks, study length 104 weeks",461 mg/kg/day
same,TD50,"mouse, strain B6C3F1, males, by gavage, site: forestomach, lesion: squamous-cell carcinoma + squamous-cell papilloma, dosed 103 weeks, study length 104 weeks",152 mg/kg/day
same,TD50,"mouse, strain B6C3F1, males, by gavage, site: forestomach, lesion: squamous-cell papilloma, dosed 103 weeks, study length 104 weeks",179 mg/kg/day
same,TD50,"mouse, strain B6C3F1, males, by gavage, site: liver, lesion: hepatoblastoma, dosed 103 weeks, study length 104 weeks",632 mg/kg/day
same,TD50,"mouse, strain B6C3F1, males, by gavage, site: lung, lesion: alveolar/bronchiolar adenoma + alveolar/bronchiolar carcinoma, dosed 103 weeks, study length 104 weeks",241 mg/kg/day
same,TD50,"mouse, strain B6C3F1, males, by gavage, site: lung, lesion: alveolar/bronchiolar adenoma, dosed 103 weeks, study length 104 weeks",265 mg/kg/day
same,TD50,"mouse, strain B6C3F1, males, by gavage, site: pancreatic islets, lesion: islet-cell adenoma, dosed 103 weeks, study length 104 weeks",1310 mg/kg/day
same,TD50,"mouse, strain Charles River CD1, females, in feed, site: liver, lesion: several types, types named in the paper, dosed 109 weeks, study length 109 weeks",176 mg/kg/day (inactive)
same,TD50,"mouse, strain Charles River CD1, females, in feed, site: lung, lesion: adenocarcinoma, dosed 109 weeks, study length 109 weeks",3140 mg/kg/day (inactive)
same,TD50,"mouse, strain Charles River CD1, females, in feed, site: lung, lesion: adenoma, dosed 109 weeks, study length 109 weeks",4500 mg/kg/day (inactive)
same,carcinogen call,"mouse, strain Charles River CD1, males, in feed, site: liver, lesion: several types, types named in the paper, dosed 101 weeks, study length 101 weeks",negative (inactive)
same,TD50,"mouse, strain Charles River CD1, males, in feed, site: lung, lesion: adenocarcinoma, dosed 101 weeks, study length 101 weeks",1020 mg/kg/day (inactive)
same,carcinogen call,"mouse, strain Charles River CD1, males, in feed, site: lung, lesion: adenoma, dosed 101 weeks, study length 101 weeks",negative (inactive)
same,TD50,"rat, strain Fischer 344, females, by gavage, site: any site (literature study), lesion: several types, types named in the paper, dosed 103 weeks, study length 104 weeks",456 mg/kg/day
same,TD50,"rat, strain Fischer 344, females, by gavage, site: kidney, lesion: tubule adenoma, dosed 103 weeks, study length 104 weeks",1410 mg/kg/day and 930 mg/kg/day
same,TD50,"rat, strain Fischer 344, males, by gavage, site: any site (literature study), lesion: several types, types named in the paper, dosed 39 weeks, study length 104 weeks",210 mg/kg/day
same,TD50,"rat, strain Fischer 344, males, by gavage, site: any site (literature study), lesion: several types, types named in the paper, dosed 65 weeks, study length 104 weeks",12.2 mg/kg/day
same,TD50,"rat, strain Fischer 344, males, by gavage, site: any site (literature study), lesion: several types, types named in the paper, dosed 101 weeks, study length 104 weeks",12 mg/kg/day
same,TD50,"rat, strain Fischer 344, males, by gavage, site: forestomach, lesion: squamous-cell papilloma, dosed 101 weeks, study length 104 weeks",142 mg/kg/day
same,TD50,"rat, strain Fischer 344, males, by gavage, site: kidney, lesion: adenoma + tubule adenoma + tubule carcinoma, dosed 101 weeks, study length 104 weeks",13.9 mg/kg/day
same,TD50,"rat, strain Fischer 344, males, by gavage, site: kidney, lesion: adenoma + tubule adenoma, dosed 101 weeks, study length 104 weeks",226 mg/kg/day and 13.9 mg/kg/day
same,TD50,"rat, strain Fischer 344, males, by gavage, site: kidney, lesion: tubule adenoma, dosed 65 weeks, study length 104 weeks",67.6 mg/kg/day
same,TD50,"rat, strain Fischer 344, males, by gavage, site: kidney, lesion: tubule carcinoma, dosed 101 weeks, study length 104 weeks",151 mg/kg/day
same,TD50,"rat, strain Fischer 344, males, by gavage, site: liver, lesion: hepatocellular adenoma + hepatoblastoma + hepatocellular carcinoma, dosed 65 weeks, study length 104 weeks",171 mg/kg/day
same,TD50,"rat, strain Fischer 344, males, by gavage, site: pituitary gland, lesion: pars distalis adenoma, dosed 101 weeks, study length 104 weeks",19.7 mg/kg/day
same,TD50,"rat, strain Fischer 344, males, by gavage, site: testis, lesion: interstitial-cell adenoma, dosed 39 weeks, study length 104 weeks",19.8 mg/kg/day
same,TD50,"rat, strain Fischer 344, males, by gavage, site: testis, lesion: interstitial-cell adenoma, dosed 65 weeks, study length 104 weeks",8.22 mg/kg/day
same,TD50,"rat, strain Fischer 344, males, by gavage, site: testis, lesion: interstitial-cell adenoma, dosed 101 weeks, study length 104 weeks",3.62 mg/kg/day
same,TD50,"rat, strain Sprague-Dawley, females, in feed, site: liver, lesion: cholangiocarcinoma, dosed 110 weeks, study length 110 weeks",767 mg/kg/day
same,TD50,"rat, strain Sprague-Dawley, females, in feed, site: liver, lesion: several types, types named in the paper, dosed 110 weeks, study length 110 weeks",1440 mg/kg/day
same,TD50,"rat, strain Sprague-Dawley, males, in feed, site: liver, lesion: cholangiocarcinoma, dosed 104 weeks, study length 104 weeks",302 mg/kg/day
same,TD50,"rat, strain Sprague-Dawley, males, in feed, site: liver, lesion: several types, types named in the paper, dosed 104 weeks, study length 104 weeks",365 mg/kg/day
S=C([S-])NCCNC(=S)[S-].[Mn+2],TD50,"mouse, strain B6AKF1, females, oral dosing, site: any site (literature study), lesion: several types, types named in the paper, dosed 76 weeks, study length 76 weeks",138 mg/kg/day (inactive)
same,carcinogen call,"mouse, strain B6AKF1, females, oral dosing, site: liver, lesion: hepatoma, dosed 76 weeks, study length 76 weeks",negative (inactive)
same,carcinogen call,"mouse, strain B6AKF1, females, oral dosing, site: lung, lesion: adenoma, dosed 76 weeks, study length 76 weeks",negative (inactive)
same,TD50,"mouse, strain B6AKF1, males, oral dosing, site: any site (literature study), lesion: several types, types named in the paper, dosed 76 weeks, study length 76 weeks",106 mg/kg/day (inactive)
same,carcinogen call,"mouse, strain B6AKF1, males, oral dosing, site: liver, lesion: hepatoma, dosed 76 weeks, study length 76 weeks",negative (inactive)
same,TD50,"mouse, strain B6AKF1, males, oral dosing, site: lung, lesion: adenoma, dosed 76 weeks, study length 76 weeks",54.9 mg/kg/day (inactive)
same,carcinogen call,"mouse, strain B6C3F1, females, oral dosing, site: any site (literature study), lesion: one or several types, types not named, dosed 76 weeks, study length 76 weeks",negative (inactive)
same,carcinogen call,"mouse, strain B6C3F1, females, oral dosing, site: liver, lesion: hepatoma, dosed 76 weeks, study length 76 weeks",negative (inactive)
same,carcinogen call,"mouse, strain B6C3F1, females, oral dosing, site: lung, lesion: several types, types named in the paper, dosed 76 weeks, study length 76 weeks",negative (inactive)
same,TD50,"mouse, strain B6C3F1, males, oral dosing, site: any site (literature study), lesion: several types, types named in the paper, dosed 76 weeks, study length 76 weeks",62.3 mg/kg/day (inactive)
same,TD50,"mouse, strain B6C3F1, males, oral dosing, site: liver, lesion: hepatoma, dosed 76 weeks, study length 76 weeks",128 mg/kg/day (inactive)
same,TD50,"mouse, strain B6C3F1, males, oral dosing, site: lung, lesion: adenoma, dosed 76 weeks, study length 76 weeks",128 mg/kg/day (inactive)
same,TD50,"rat, strain Mongrel, both sexes, by gavage, site: any site (literature study), lesion: several types, types named in the paper, dosed 95 weeks, study length 104 weeks",157 mg/kg/day
Cc1ccc2c(c1)C(N1CCN(C)CC1)=Nc1ccccc1S2,carcinogen call,"rat, strain albino, females, in feed, site: mammary gland, lesion: fibroadenoma, dosed 78 weeks, study length 78 weeks",negative (inactive)
same,carcinogen call,"rat, strain albino, males, in feed, site: pituitary gland, lesion: adenoma, dosed 78 weeks, study length 78 weeks",negative (inactive)
CCCN(CCC)N=O,TD50,"monkey, strain Rhesus [Macaca mulatta], both sexes, i.p., site: any site (literature study), lesion: malignant tumor, dosed 133 weeks, study length 133 weeks",0.0121 mg/kg/day
same,TD50,"monkey, strain Rhesus [Macaca mulatta], both sexes, i.p., site: liver, lesion: hepatocellular carcinoma, dosed 133 weeks, study length 133 weeks",0.0121 mg/kg/day
same,TD50,"rat, strain Fischer 344, females, by gavage, site: esophagus, lesion: several types, types named in the paper, dosed 30 weeks, study length 60 weeks",0.505 mg/kg/day
same,TD50,"rat, strain Fischer 344, females, by gavage, site: liver, lesion: hepatocellular carcinoma, dosed 30 weeks, study length 60 weeks",0.186 mg/kg/day
same,TD50,"rat, strain Fischer 344, females, by gavage, site: nasal cavity, lesion: carcinoma, dosed 30 weeks, study length 60 weeks",0.186 mg/kg/day
